According to PubChem BioAssay AID1259408 (Genetic Toxicology Data Bank (GENE-TOX), 2018):
Active and inactive are the calls of the source. How the calls were made is not given here.

Test system: GENE-TOX genotoxicity assays, various organisms and cells
Assay: GENE-TOX mutagenicity studies
Conditions: for call: Assay Type: In vivo carcinogenicity studies
[1] = Species/Cell Type: Drosophila melanogaster, Assay Type: Sex-linked recessive lethal gene mutation, Assay Code: SRLT, Evaluation Type: Evaluation A (Pre-1980)
[2] = Species/Cell Type: Nonhuman, Assay Code: CCG+, Evaluation Type: Evaluation A (Pre-1980)
[3] = Species/Cell Type: Salmonella typhimurium (one or more of the five standard strains: TA98, TA100, TA1535, TA1537, and TA1538), Assay Type: Histidine reverse gene mutation, Ames assay, Assay Code: SAL+, Evaluation Type: Evaluation A (Pre-1980)
[4] = Species/Cell Type: Human lymphocytes, Assay Type: Sister-chromatid exchange (SCE) in vitro, Assay Code: SCL+D, Dose Response: With dose response, Evaluation Type: Evaluation B (Post-1980)
[5] = Species/Cell Type: Human, Assay Type: Sister-chromatid exchange (SCE) in vitro, Assay Code: SC1+D, Dose Response: With dose response, Evaluation Type: Evaluation B (Post-1980)
[6] = Species/Cell Type: Nonhuman, Assay Type: Sister-chromatid exchange (SCE) in vitro, Assay Code: SC2+D, Dose Response: With dose response, Evaluation Type: Evaluation B (Post-1980)
[7] = Species/Cell Type: Bacillus subtilis (H17 vs M45), Assay Type: Rec-assay, spot test, DNA effects (bacterial DNA repair), Assay Code: REW+, Evaluation Type: Evaluation A (Pre-1980)
[8] = Species/Cell Type: Bacillus subtilis (H17 vs M45), Assay Type: Rec-assay, spot test, DNA effects (bacterial DNA repair), Assay Code: REWT, Evaluation Type: Evaluation A (Pre-1980)
[9] = Species/Cell Type: Chinese hamster lung (V79) cells, Assay Type: Forward gene mutation at the HPRT or ouabain locus, Assay Code: V79+, Evaluation Type: Evaluation A (Pre-1980)
[10] = Species/Cell Type: Escherichia coli polA (W3119 vs P3478), Assay Type: Rec-assay, DNA effects (bacterial DNA repair), Assay Code: RE1T, Evaluation Type: Evaluation A (Pre-1980)
[11] = Species/Cell Type: Human diploid fibroblasts, Assay Type: Unscheduled DNA synthesis (UDS) in vitro, DNA effects, Assay Code: UDH-, Evaluation Type: Evaluation A (Pre-1980)
[12] = Species/Cell Type: Saccharomyces cerevisiae, Assay Type: Mitotic recombination or gene conversion, Assay Code: YEH-, Evaluation Type: Evaluation A (Pre-1980)
[13] = Species/Cell Type: Salmonella typhimurium (one or more of the five standard strains: TA98, TA100, TA1535, TA1537, and TA1538), Assay Type: Histidine reverse gene mutation, Ames assay, Assay Code: SALT, Evaluation Type: Evaluation A (Pre-1980)

Cc1c2ccccc2cc2c1ccc1ccccc12 was tested, and the mutagenic call (Species/Cell Type: Chinese hamster lung (V79) cells, Assay Type: Forward gene mutation at the HPRT or ouabain locus, Assay Code: V79+*, Activation: With metabolic activation, Evaluation Type: Evaluation A (Pre-1980)) was “active; positive”, the mutagenic call [1] was “no conclusion” and the mutagenic call (Species/Cell Type: Mouse prostate cells, Assay Type: Cell transformation, Assay Code: CTM+D, Dose Response: With dose response, Evaluation Type: Evaluation A (Pre-1980)) was “active; positive”. For the same compound, the call [2] was “active; positive”, the mutagenic call (Species/Cell Type: Nonhuman, Assay Type: Sister-chromatid exchange (SCE) in vitro, Assay Code: SC2+D, Dose Response: With dose response, Evaluation Type: Evaluation A (Pre-1980)) was “active; positive” and the mutagenic call (Species/Cell Type: Salmonella typhimurium (one or more of the five standard strains: TA98, TA100, TA1535, TA1537, and TA1538), Assay Type: Histidine reverse gene mutation, Ames assay, Assay Code: SAL+*, Activation: With metabolic activation, Evaluation Type: Evaluation A (Pre-1980)) was “active; positive”. The mutagenic call (Species/Cell Type: Syrian hamster embryo (SHE) cells, Assay Type: Cell transformation, clonal assay, Assay Code: CTC+, Evaluation Type: Evaluation A (Pre-1980)) was “active; positive”.

In the case of CC(C)CN(N=O)/C(N)=N/[N+](=O)[O-], the mutagenic call (Species/Cell Type: Arabidopsis species, Assay Type: Gene mutation, Assay Code: ARM+, Evaluation Type: Evaluation A (Pre-1980)) is reported as “active; positive” and the mutagenic call [3] is reported as “active; positive”.

For O=[N+]([O-])c1ccc(/C=N\O)o1, the mutagenic call (Species/Cell Type: Escherichia coli WP2, Assay Type: Tryptophan reverse gene mutation, Assay Code: WP2-, Evaluation Type: Evaluation A (Pre-1980)) was “inactive; negative”, the mutagenic call (Species/Cell Type: Escherichia coli WP2 UVRA, Assay Type: Tryptophan reverse gene mutation, Assay Code: WPU+D, Dose Response: With dose response, Evaluation Type: Evaluation A (Pre-1980)) was “active; positive” and the mutagenic call [3] was “active; positive”.

With N[C@@H]1CONC1=O the mutagenic call (Species/Cell Type: Escherichia coli polA (W3119 vs P3478), Assay Type: Rec-assay, DNA effects (bacterial DNA repair), Assay Code: RE1-, Evaluation Type: Evaluation A (Pre-1980)) was “inactive; negative”.

In the case of CO[C@@]12[C@H](CO)C3=C(C(=O)C(C)=C(N)C3=O)N1C[C@@H]1N[C@@H]12, the mutagenic call [4] is reported as “active; positive”, the mutagenic call [5] is reported as “active; positive” and the mutagenic call [6] is reported as “active; positive”.

With CCNC(=O)N(CC)N=O the mutagenic call (Species/Cell Type: Zea mays (corn), Assay Type: Gene mutation, Assay Code: ZEM+D, Dose Response: With dose response, Evaluation Type: Evaluation A (Pre-1980)) was “active; positive”.

For C[As](SC#N)SC#N, the mutagenic call [7] was “active; positive”.

For COc1ccc2c(c1)C(=O)N(CCc1ccc(S(=O)(=O)NC(=O)NC3CCCCC3)cc1)C(=O)C2(C)C, the mutagenic call (Species/Cell Type: Nonhuman, Assay Type: Sister-chromatid exchange (SCE) in vivo, Assay Code: SC3T, Evaluation Type: Evaluation B (Post-1980)) was “no conclusion”.

C=CCNC(=O)Nc1nc(-c2ccccc2)cs1 was tested, and the mutagenic call (Species/Cell Type: Salmonella typhimurium, Assay Type: Forward and reverse gene mutation, host-mediated assay, Assay Code: HMAT, Evaluation Type: Evaluation A (Pre-1980)) was “no conclusion”.

With CC(=O)Oc1c(Cl)c(Cl)c(Cl)c(Cl)c1Cl the mutagenic call [8] was “no conclusion”.

In the case of CC(=O)[O-].CC(=O)[O-].[Hg+2], the mutagenic call (Species/Cell Type: Mammalian oocytes or early embryo, Assay Type: Chromosome aberrations in vivo, Assay Code: CYO-, Evaluation Type: Evaluation A (Pre-1980)) is reported as “inactive; negative” and the mutagenic call (Species/Cell Type: Nonhuman, Assay Type: Sister-chromatid exchange (SCE) in vitro, Assay Code: SC2-, Evaluation Type: Evaluation B (Post-1980)) is reported as “inactive; negative”.

With BrCc1c2ccccc2cc2ccccc12 the mutagenic call [3] was “active; positive”.

In the case of OC1C=Cc2cc3ccc4cccc5ccc(c2C1O)c3c45 (configuration not stated), the mutagenic call (Species/Cell Type: Mouse prostate cells, Assay Type: Cell transformation, Assay Code: CTM+, Evaluation Type: Evaluation A (Pre-1980)) is reported as “active; positive”.

For Cc1c2ccccc2cc2c3c(ccc12)[C@@H](O)[C@H](O)C=C3, the mutagenic call [9] was “active; positive” and the call (Species/Cell Type: Nonhuman, Assay Code: CCG+L, Evaluation Type: Evaluation A (Pre-1980)) was “active; positive”.

CCC(=O)O was tested, and the mutagenic call (Species/Cell Type: Mammalian polychromatic erythrocytes, Assay Type: Micronucleus test, chromosome aberrations, Assay Code: MNT-, Evaluation Type: Evaluation B (Post-1980)) was “inactive; negative”.

O=c1[nH]cc(N(CCCl)CCCl)c(=O)[nH]1 was tested, and the mutagenic call (Species/Cell Type: Drosophila melanogaster, Assay Type: Sex-linked recessive lethal gene mutation, Assay Code: SRL+, Evaluation Type: Evaluation A (Pre-1980)) was “active; positive”, the mutagenic call (Species/Cell Type: Escherichia coli polA (W3119 vs P3478), Assay Type: Rec-assay, DNA effects (bacterial DNA repair), Assay Code: RE1+, Evaluation Type: Evaluation A (Pre-1980)) was “active; positive” and the mutagenic call (Species/Cell Type: Fischer rat embryo (RLV/1706) cells, Assay Type: Cell transformation, viral enhanced, Assay Code: CTR+, Evaluation Type: Evaluation A (Pre-1980)) was “active; positive”. For the same compound, the mutagenic call (Species/Cell Type: Mouse (BALB/c-3T3) cells, Assay Type: Cell transformation, Assay Code: CTB-, Evaluation Type: Evaluation A (Pre-1980)) was “inactive; negative”, the mutagenic call (Species/Cell Type: Mouse lymphoma (L5178Y) cells, Assay Type: Forward gene mutation at the thymidine kinase (TK) locus, chromosome aberrations, Assay Code: L51+, Evaluation Type: Evaluation A (Pre-1980)) was “active; positive” and the call [2] was “active; positive”. The mutagenic call (Species/Cell Type: Saccharomyces cerevisiae, Assay Type: Mitotic recombination or gene conversion, Assay Code: YEH+, Evaluation Type: Evaluation A (Pre-1980)) was “active; positive”, the mutagenic call [3] was “active; positive” and the mutagenic call (Species/Cell Type: Salmonella typhimurium, Assay Type: Forward and reverse gene mutation, host-mediated assay, Assay Code: HMA+, Evaluation Type: Evaluation A (Pre-1980)) was “active; positive”.

CCOP(=S)(OCC)Oc1ccc([N+](=O)[O-])cc1 was tested, and the mutagenic call (Species/Cell Type: Allium cepa, Assay Type: Chromosome aberrations, Assay Code: ALC+D, Dose Response: With dose response, Evaluation Type: Evaluation A (Pre-1980)) was “active; positive”, the mutagenic call [8] was “no conclusion” and the mutagenic call [1] was “no conclusion”. For the same compound, the mutagenic call (Species/Cell Type: Escherichia coli WP2 UVRA, Assay Type: Tryptophan reverse gene mutation, Assay Code: WPU-*, Activation: With metabolic activation, Evaluation Type: Evaluation A (Pre-1980)) was “inactive; negative”, the mutagenic call [10] was “no conclusion” and the mutagenic call [11] was “inactive; negative”. The mutagenic call [4] was “active; positive”, the mutagenic call [5] was “active; positive” and the mutagenic call [6] was “active; positive”. For the same compound, the mutagenic call [12] was “inactive; negative” and the mutagenic call [13] was “no conclusion”.

In the case of Cc1c2cccc(F)c2c(C)c2c1ccc1ccccc12, the mutagenic call [9] is reported as “active; positive”.

With c1cc2ccc3ccc4ccc5cccc6c(c1)c2c3c4c56 the mutagenic call [13] was “no conclusion”.

CC(=O)Nc1cc2c(cc1O)-c1ccccc1C2 was tested, and the mutagenic call [1] was “no conclusion”, the mutagenic call (Species/Cell Type: Escherichia coli polA (W3110 vs P3478), Assay Type: Rec-assay, DNA effects (bacterial DNA repair), Assay Code: RE2-, Evaluation Type: Evaluation A (Pre-1980)) was “inactive; negative” and the mutagenic call [10] was “no conclusion”. The mutagenic call [11] was “inactive; negative”, the mutagenic call [12] was “inactive; negative” and the mutagenic call (Species/Cell Type: Salmonella typhimurium (one or more of the five standard strains: TA98, TA100, TA1535, TA1537, and TA1538), Assay Type: Histidine reverse gene mutation, Ames assay, Assay Code: SAL-, Evaluation Type: Evaluation A (Pre-1980)) was “inactive; negative”.

In the case of C[C@H]1CCCC(=O)CCC/C=C/c2cc(O)cc(O)c2C(=O)O1, the mutagenic call [7] is reported as “active; positive” and the mutagenic call [12] is reported as “inactive; negative”.

In the case of CC(C)N(C(=O)CCl)c1ccccc1, the mutagenic call (Species/Cell Type: Saccharomyces cerevisiae, Assay Type: Mitotic recombination or gene conversion, Assay Code: YEC+, Evaluation Type: Evaluation A (Pre-1980)) is reported as “active; positive”.

In the case of Clc1cc2oc3cc(Cl)c(Cl)cc3c2cc1Cl, the mutagenic call (Species/Cell Type: Saccharomyces cerevisiae, Assay Type: Forward gene mutation, Assay Code: YEF-, Evaluation Type: Evaluation A (Pre-1980)) is reported as “inactive; negative”, the mutagenic call (Species/Cell Type: Saccharomyces cerevisiae, Assay Type: Mitotic recombination or gene conversion, Assay Code: YEC-, Evaluation Type: Evaluation A (Pre-1980)) is reported as “inactive; negative” and the mutagenic call [12] is reported as “inactive; negative”.
